Source: ChEMBL document CHEMBL4311999, “3-Hydrazinoisatin-based benzenesulfonamides as novel carbonic anhydrase inhibitors endowed with anticancer activity: Synthesis, in vitro biological evaluation and in silico insights” (Eur J Med Chem, 2019)

Key:
[1] = target: T1, Carbonic anhydrase 9 (Homo sapiens, UniProt Q16790); experiment: Inhibition of human recombinant carbonic anhydrase 9 by stopped flow CO2 hydration assay
[2] = system: SK-MEL-5; experiment: Growth inhibition of human SK-MEL-5 cells at 10 uM incubated for 48 hrs by sulforhodamine B assay relative to control; type: functional; conditions: SK-MEL-5, 48 h, read-out: GI
[3] = system: U-251; experiment: Growth inhibition of human U251 cells at 10 uM incubated for 48 hrs by sulforhodamine B assay relative to control; type: functional; conditions: U-251, 48 h, read-out: GI
[4] = system: TK-10; experiment: Growth inhibition of human TK10 cells at 10 uM incubated for 48 hrs by sulforhodamine B assay relative to control; type: functional; conditions: TK-10, 48 h, read-out: GI
[5] = system: SNB-19; experiment: Growth inhibition of human SNB19 cells at 10 uM incubated for 48 hrs by sulforhodamine B assay relative to control; type: functional; conditions: SNB-19, 48 h, read-out: GI
[6] = system: CAKI-1; experiment: Growth inhibition of human Caki1 cells at 10 uM incubated for 48 hrs by sulforhodamine B assay relative to control; type: functional; conditions: CAKI-1, 48 h, read-out: GI
[7] = system: HCT-116; experiment: Growth inhibition of human HCT116 cells at 10 uM incubated for 48 hrs by sulforhodamine B assay relative to control; type: functional; conditions: HCT-116, 48 h, read-out: GI
[8] = system: T47D; experiment: Growth inhibition of human T47D cells at 10 uM incubated for 48 hrs by sulforhodamine B assay relative to control; type: functional; conditions: read-out: GI
[9] = system: PC-3; experiment: Growth inhibition of human PC3 cells at 10 uM incubated for 48 hrs by sulforhodamine B assay relative to control; type: functional; conditions: PC-3, 48 h, read-out: GI
[10] = system: KM12; experiment: Growth inhibition of human KM12 cells at 10 uM incubated for 48 hrs by sulforhodamine B assay relative to control; type: functional; conditions: KM12, 48 h, read-out: GI
[11] = system: OVCAR-8; experiment: Growth inhibition of human OVCAR8 cells at 10 uM incubated for 48 hrs by sulforhodamine B assay relative to control; type: functional; conditions: OVCAR-8, 48 h, read-out: GI
[12] = system: SK-MEL-2; experiment: Growth inhibition of human SK-MEL-2 cells at 10 uM incubated for 48 hrs by sulforhodamine B assay relative to control; type: functional; conditions: SK-MEL-2, 48 h, read-out: GI
[13] = system: CCRF-CEM; experiment: Growth inhibition of human CCRF-CEM cells at 10 uM incubated for 48 hrs by sulforhodamine B assay relative to control; type: functional; conditions: read-out: GI
[14] = system: RPMI-8226; experiment: Growth inhibition of human RPMI8226 cells at 10 uM incubated for 48 hrs by sulforhodamine B assay relative to control; type: functional; conditions: RPMI-8226, 48 h, read-out: GI
[15] = system: SN12C; experiment: Growth inhibition of human SN12C cells at 10 uM incubated for 48 hrs by sulforhodamine B assay relative to control; type: functional; conditions: read-out: GI
[16] = system: MDA-MB-468; experiment: Growth inhibition of human MDA-MB-468 cells at 10 uM incubated for 48 hrs by sulforhodamine B assay relative to control; type: functional; conditions: MDA-MB-468, 48 h, read-out: GI
[17] = system: EKVX; experiment: Growth inhibition of human EKVX cells at 10 uM incubated for 48 hrs by sulforhodamine B assay relative to control; type: functional; conditions: read-out: GI
[18] = system: RXF 393; experiment: Growth inhibition of human RXF393 cells at 10 uM incubated for 48 hrs by sulforhodamine B assay relative to control; type: functional; conditions: RXF 393, 48 h, read-out: GI
[19] = system: ACHN; experiment: Growth inhibition of human ACHN cells at 10 uM incubated for 48 hrs by sulforhodamine B assay relative to control; type: functional; conditions: read-out: GI
[20] = system: NCI-H460; experiment: Growth inhibition of human NCI-H460 cells at 10 uM incubated for 48 hrs by sulforhodamine B assay relative to control; type: functional; conditions: NCI-H460, 48 h, read-out: GI
[21] = system: MCF7; experiment: Growth inhibition of human MCF7 cells at 10 uM incubated for 48 hrs by sulforhodamine B assay relative to control; type: functional; conditions: MCF7, 48 h, read-out: GI
[22] = target: T1, Carbonic anhydrase 9; experiment: Inhibition of recombinant human carbonic anhydrase 9 preincubated for 15 mins by phenol red dye based stopped flow CO2 hydration assay
[23] = system: DU-145; experiment: Growth inhibition of human DU145 cells at 10 uM incubated for 48 hrs by sulforhodamine B assay relative to control; type: functional; conditions: DU-145, 48 h, read-out: GI
[24] = system: UACC-62; experiment: Growth inhibition of human UACC62 cells at 10 uM incubated for 48 hrs by sulforhodamine B assay relative to control; type: functional; conditions: UACC-62, 48 h, read-out: GI
[25] = system: A498; experiment: Growth inhibition of human A498 cells at 10 uM incubated for 48 hrs by sulforhodamine B assay relative to control; type: functional; conditions: A498, 48 h, read-out: GI
[26] = system: OVCAR-4; experiment: Growth inhibition of human OVCAR4 cells at 10 uM incubated for 48 hrs by sulforhodamine B assay relative to control; type: functional; conditions: OVCAR-4, 48 h, read-out: GI
[27] = system: NCI-H522; experiment: Growth inhibition of human NCI-H522 cells at 10 uM incubated for 48 hrs by sulforhodamine B assay relative to control; type: functional; conditions: NCI-H522, 48 h, read-out: GI
[28] = system: HT-29; experiment: Growth inhibition of human HT-29 cells at 10 uM incubated for 48 hrs by sulforhodamine B assay relative to control; type: functional; conditions: HT-29, 48 h, read-out: GI
[29] = system: UO-31; experiment: Growth inhibition of human UO31 cells at 10 uM incubated for 48 hrs by sulforhodamine B assay relative to control; type: functional; conditions: UO-31, 48 h, read-out: GI
[30] = system: A549; experiment: Growth inhibition of human A549/ATCC cells at 10 uM incubated for 48 hrs by sulforhodamine B assay relative to control; type: functional; conditions: A549, 48 h, read-out: GI
[31] = system: HCT-15; experiment: Growth inhibition of human HCT15 cells at 10 uM incubated for 48 hrs by sulforhodamine B assay relative to control; type: functional; conditions: HCT-15, 48 h, read-out: GI
[32] = system: UACC-257; experiment: Growth inhibition of human UACC257 cells at 10 uM incubated for 48 hrs by sulforhodamine B assay relative to control; type: functional; conditions: UACC-257, 48 h, read-out: GI
[33] = system: NCI/ADR-RES; experiment: Growth inhibition of human NCI/ADR-RES cells at 10 uM incubated for 48 hrs by sulforhodamine B assay relative to control; type: functional; conditions: read-out: GI
[34] = system: SW-620; experiment: Growth inhibition of human SW620 cells at 10 uM incubated for 48 hrs by sulforhodamine B assay relative to control; type: functional; conditions: SW-620, 48 h, read-out: GI
[35] = system: HOP-92; experiment: Growth inhibition of human HOP92 cells at 10 uM incubated for 48 hrs by sulforhodamine B assay relative to control; type: functional; conditions: HOP-92, 48 h, read-out: GI
[36] = system: 786-0; experiment: Growth inhibition of human 786-0 cells at 10 uM incubated for 48 hrs by sulforhodamine B assay relative to control; type: functional; conditions: 786-0, 48 h, read-out: GI
[37] = system: MDA-MB-231; experiment: Growth inhibition of human MDA-MB-231 cells at 10 uM incubated for 48 hrs by sulforhodamine B assay relative to control; type: functional; conditions: MDA-MB-231, 48 h, read-out: GI
[38] = system: NCI-H226; experiment: Growth inhibition of human NCI-H226 cells at 10 uM incubated for 48 hrs by sulforhodamine B assay relative to control; type: functional; conditions: NCI-H226, 48 h, read-out: GI
[39] = system: BT-549; experiment: Growth inhibition of human BT549 cells at 10 uM incubated for 48 hrs by sulforhodamine B assay relative to control; type: functional; conditions: BT-549, 48 h, read-out: GI

NS(=O)(=O)c1ccc(CC/N=C2\NC(=O)/C(=C3/C(=O)Nc4ccc(F)cc43)S2)cc1
Ki [1]: 0.287 µM

NS(=O)(=O)c1ccc(N/N=C2\C(=O)N(Cc3ccccc3)c3ccccc32)cc1
inhibition of growth at 10 µM [2]: 12%
inhibition of growth at 10 µM [3]: 17%
inhibition of growth at 10 µM [4]: 19%
inhibition of growth at 10 µM [5]: 13%
inhibition of growth at 10 µM [6]: 20%
inhibition of growth at 10 µM [7]: 28%
inhibition of growth at 10 µM [8]: 42%
inhibition of growth at 10 µM [9]: 25%
inhibition of growth at 10 µM [10]: 10%
inhibition of growth at 10 µM [11]: 17%
inhibition of growth at 10 µM [12]: 13%
inhibition of growth at 10 µM [13]: 36%
inhibition of growth at 10 µM [14]: 38%
inhibition of growth at 10 µM [15]: 19%
inhibition of growth at 10 µM [16]: 27%
inhibition of growth at 10 µM [17]: 13%
inhibition of growth at 10 µM [18]: 10%
inhibition of growth at 10 µM [19]: 14%
inhibition of growth at 10 µM [20]: 20%
inhibition of growth at 10 µM [21]: 21%
Ki [22]: 0.0277 µM
inhibition of growth at 10 µM [23]: 10%
inhibition of growth at 10 µM [24]: 37%
inhibition of growth at 10 µM [25]: 10%
inhibition of growth at 10 µM [26]: 21%
inhibition of growth at 10 µM [27]: 46%
inhibition of growth at 10 µM [28]: 21%
inhibition of growth at 10 µM [29]: 38%
inhibition of growth at 10 µM [30]: 25%
inhibition of growth at 10 µM [31]: 13%
inhibition of growth at 10 µM [32]: 11%
inhibition of growth at 10 µM [33]: 20%
inhibition of growth at 10 µM [34]: 18%
inhibition of growth at 10 µM [35]: 34%
inhibition of growth at 10 µM [36]: 22%
inhibition of growth at 10 µM [37]: 19%
inhibition of growth at 10 µM [38]: 21%
inhibition of growth at 10 µM [39]: 16%
